Experimental data as given in ChEMBL document CHEMBL3272091, “Ergot alkaloids. Synthesis of 6-alkyl-8-ergolenes and 6-methyl-8-aminoergolines as potential prolactin inhibitors” (1977).
The source made the active and inactive calls. No cut-off for these calls is given here.

Key:
[1] = system: Rattus norvegicus; test: Prolactin inhibition ability in Sprague-Dawley rat at 10 ug/ml, ip administered 18 hrs post reserpine treatment measured after 1 hr by RIA; type: functional
[2] = system: Rattus norvegicus; test: Prolactin inhibition ability in Sprague-Dawley rat at 10 ug/ml, ip administered 18 hrs post reserpine treatment measured after 1 hr by RIA relative to ergoconine; type: functional
[3] = system: Rattus norvegicus; test: Prolactin inhibition ability in Sprague-Dawley rat at 10 ug/ml, ip administered 18 hrs post reserpine treatment measured after 1 hr by RIA relative to lergotrile; type: functional
[4] = system: Rattus norvegicus; test: Prolactin stimulation ability in Sprague-Dawley rat at 10 ug/ml, ip administered 18 hrs post reserpine treatment measured after 1 hr by RIA; type: functional, organism-based

Row | Compound | inhibition (INH) [1] | inhibition (INH) [2] | inhibition (INH) [3] | inhibition [4]
1 | CN1CC(CO)=C[C@@H]2c3cccc4[nH]cc(c34)C[C@H]21 | 71% | 75% | – | –
2 | N#CN1CC(CO)=C[C@@H]2c3cccc4[nH]cc(c34)C[C@H]21 | 25% | 67% | – | –
3 | CCC(=O)N1CC(CO)=C[C@@H]2c3cccc4[nH]cc(c34)C[C@H]21 | – | – | 77% | –
4 | CCN1CC(CO)=C[C@@H]2c3cccc4[nH]cc(c34)C[C@H]21 | 63% | – | 77% | –
5 | OCC1=C[C@@H]2c3cccc4[nH]cc(c34)C[C@H]2N(Cc2ccccc2)C1 | – | – | 60% | –
6 | CN1C[C@H](N)C[C@@H]2c3cccc4[nH]cc(c34)C[C@H]21 | 57% | – | – | –
7 | CN1C[C@H](NC(=O)CCl)C[C@@H]2c3cccc4[nH]cc(c34)C[C@H]21 | – | – | – | Active
8 | OCC1=C[C@@H]2c3cccc4[nH]cc(c34)C[C@H]2NC1 | 58% | 67% | – | –
9 | CC(=O)N1CC(CO)=C[C@@H]2c3cccc4[nH]cc(c34)C[C@H]21 | – | – | – | Active
10 | CCOC(=O)CN1CC(CO)=C[C@@H]2c3cccc4[nH]cc(c34)C[C@H]21 | 14% | – | 77% | –
11 | CN1C[C@H](NC(=O)CBr)C[C@@H]2c3cccc4[nH]cc(c34)C[C@H]21 | – | – | – | Active
12 | CCCN1CC(CO)=C[C@@H]2c3cccc4[nH]cc(c34)C[C@H]21 | 72% | – | 77% | –
